Experimental data from PubChem BioAssay (NCI).
Values joined by “and” are separate entries in the source; they are usually repeats but may differ in a detail not shown here. Equal values may be shown once.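 Test compounds were applied to cells in 96-well plates for 48 hours at 5 doses. GI50 is the concentration that inhibits growth by half. Definition used: TGI = concentration required for complete inhibition of growth.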

How the values were obtained:
Experiment in all cases: NCI anticancer screen, dose series, 48 h
[1] = tested on: COLO 205 colon
[2] = tested on: MDA-MB-435
[3] = tested on: SK-MEL-5 melanoma
[4] = tested on: SF-539 CNS
[5] = tested on: EKVX NSCLC
[6] = tested on: SK-MEL-28 melanoma
[7] = tested on: HCT-15 colon
[8] = tested on: HL-60(TB) leukemia
[9] = tested on: SN12C renal
[10] = tested on: SF-268 CNS

| Compound | GI50 [1] | TGI [1] | GI50 [2] | TGI [2] | GI50 [3] | TGI [3] | GI50 [4] | TGI [4] | GI50 [5] | TGI [5] | GI50 [6] | TGI [6] | GI50 [7] | TGI [7] | GI50 [8] | TGI [8] | GI50 [9] | TGI [9] | GI50 [10] | TGI [10] |
| --- | --- | --- | --- | --- | --- | --- | --- | --- | --- | --- | --- | --- | --- | --- | --- | --- | --- | --- | --- | --- |
| CCCCCCCCCc1ccc(OCCOCCOCCOCCOCCOCCOCCOCCOCCO)cc1 | 0.243 µM | 0.829 µM | 0.832 µM | 3.05 µM | 0.136 µM | 0.643 µM | 0.949 µM | 2.67 µM | 0.452 µM | 5.78 µM | 0.895 µM | 2.02 µM | 0.761 µM | 1.84 µM | 0.31 µM | 1.37 µM | 0.61 µM | 1.59 µM | 0.685 µM | 3.37 µM |
| CC(=O)c1ccc2c(c1)N(CCCN1CCN(CCO)CC1)c1ccccc1S2 | 1.74 µM | 3.5 µM | 1.72 µM | 3.52 µM | 1.72 µM | 3.14 µM | 1.73 µM | 3.55 µM | 4.83 µM | 21 µM | 1.73 µM | 3.23 µM | 1.99 µM | 5.01 µM | 2.12 µM | 4.83 µM | 3.88 µM | 17 µM | 3.15 µM | 12.2 µM |
| CCOC(=O)c1sc(-c2ccc(OS(=O)(=O)C[C@]34CCC(CC3=O)C4(C)C)c(C=O)c2)nc1C | 1.07 µM | 2.62 µM | 1.06 µM | 2.76 µM | 0.877 µM | 1.59 µM | 0.908 µM | 1.85 µM | 1.3 µM | > 50 µM | 0.982 µM | 2.12 µM | 0.761 µM | 1.69 µM | 1.27 µM | 3.29 µM | 1.41 µM | 4.58 µM | 0.954 µM | 2.47 µM |
| C=C(CN1CCc2c([nH]c3ccccc23)C1)c1ccc(C(=O)Nc2ccccc2N)cc1 | 6.35 µM | 20.9 µM | 8.47 µM | 17.7 µM | 2.61 µM | 6.88 µM | 2.76 µM | 9.81 µM | 2.14 µM | 13.5 µM | 2.25 µM | 16.1 µM | 3.5 µM | 28.1 µM | 0.67 µM | 7.25 µM | 2.33 µM | 9.98 µM | 2.89 µM | 10.8 µM |
| COc1cc(OCc2cccc(-c3ccccc3)c2C)cc(OC)c1CN1CCCCC1C(=O)NCCOCCOCCN (configuration not stated) | 1.82 µM | 3.7 µM | 1.79 µM | 3.32 µM | 1.76 µM | 3.21 µM | 1.74 µM | 3.25 µM | 3.71 µM | 15.7 µM | 1.75 µM | 3.22 µM | 3.09 µM | 11.1 µM | 1.91 µM | 4.07 µM | 2.47 µM | 7.01 µM | 2.1 µM | 5.5 µM |
| Cc1cc(CCl)c(C)cc1CCl | 1.53 µM | 3.11 µM | 1.84 µM | 4.69 µM | 4.19 µM | 17.2 µM | 1.02 µM | 4.26 µM | 2.08 µM | 5.49 µM | 2.49 µM | 6.66 µM | 2.72 µM | 17.3 µM | 2.98 µM | 13.2 µM | 0.605 µM | 13.6 µM | 1.02 µM | 6.08 µM |
| CC(C)(C)[Si](C)(C)OC1[C@@H](CNC(N)=O)O[C@@H](n2cnc3c(NC(=O)Nc4ccccc4)ncnc32)[C@H]1O[Si](C)(C)C(C)(C)C (some centres not stated) | 1.23 µM | 2.7 µM | 2.21 µM | 8.51 µM | 6.82 µM | 13.5 µM | 6.73 µM | 13.6 µM | 1.94 µM | 8.02 µM | 6.71 µM | 14 µM | 2.67 µM | 10.3 µM | 1.01 µM | 2.12 µM | 0.916 µM | 1.84 µM | 1.04 µM | 2.36 µM |
| COc1cc([C@@H]2c3cc4c(cc3[C@H](OC(C)=O)[C@H]3COC(=O)[C@@H]23)OCO4)cc(OC)c1OC | 0.272 µM | 0.678 µM | 0.0787 µM | 0.469 µM | 0.298 µM | 1.24 µM | 0.216 µM | 0.526 µM | 0.489 µM | > 100 µM | 0.729 µM | > 100 µM | 0.371 µM | > 100 µM | 0.235 µM | – | 0.759 µM | > 100 µM | 0.358 µM | – |
| COc1ccc2c(c1)CN([C@@H](C)[C@H]1CC[C@H]3[C@@H]4CC[C@H]5C[C@@H](O)CC[C@]5(C)[C@H]4CC[C@]13C)CO2 | – | 3.85 µM | – | 3.48 µM | – | 3.28 µM | – | 3.33 µM | – | 14.7 µM | – | 5.98 µM | – | 3.75 µM | – | 5.91 µM | – | 22.6 µM | – | 7.38 µM |
| CC(NC(=O)Cc1ccc(C(F)(F)P(=O)(OCc2ccc([N+](=O)[O-])o2)N(C)CCCCCl)cc1)c1ccc(OCC2CCCCC2)c(C(N)=O)c1 (configuration not stated) | 3.94 µM | 11.2 µM | 2.69 µM | 6.73 µM | 6.77 µM | 15.5 µM | 6.33 µM | 13.4 µM | 4.92 µM | 16.7 µM | 12.2 µM | 25.9 µM | 4.85 µM | 16.1 µM | 1.89 µM | 4.72 µM | 5.35 µM | 10.9 µM | 4.8 µM | 15.5 µM |
| CCN1[C@@H](C(=O)NC23CCC(C(=O)O)(CC2)CC3)[C@H](c2cccc(Cl)c2F)[C@]2(C(=O)Nc3cc(Cl)ccc32)C12CCCCC2 | 3.02 µM | 10.6 µM | 2.92 µM | 10.7 µM | 1.39 µM | 2.75 µM | 2.78 µM | 10.6 µM | 2.53 µM | 13.7 µM | 3.71 µM | 14 µM | 2.57 µM | 12.5 µM | 1.96 µM | 6 µM | 3.67 µM | 19.4 µM | 3.1 µM | 15.1 µM |
| CCCCCCNCCCNc1c2cc(OC)ccc2nc2cccc([N+](=O)[O-])c12 | 0.143 µM | 0.648 µM | 0.164 µM | 0.314 µM and 0.321 µM | 0.135 µM | 2.01 µM and 0.279 µM | 0.239 µM | 1.18 µM and 0.616 µM | 1.35 µM | 0.427 µM and 3.32 µM | 0.305 µM | 0.474 µM and 2 µM | 0.212 µM | 14.4 µM | 0.155 µM | – | 0.132 µM | 0.421 µM and 0.343 µM | 0.261 µM | 0.418 µM and 1.01 µM |
| COc1cccc(CNc2ncnc3c2ncn3C2OC(CO)C(O)C2O)c1O (configuration not stated) | 0.702 µM | 31.1 µM | 0.111 µM | 2.78 µM | 1.43 µM | > 100 µM | 0.144 µM | 1.85 µM | 0.559 µM | > 59.6 µM | 1.55 µM | > 100 µM | 0.138 µM | > 100 µM | 0.0303 µM | 0.224 µM | 0.045 µM | > 100 µM | 0.257 µM | > 100 µM |
| c1ccc(-c2nc3n(c2-c2ccc4c(c2)OCO4)CCC3)nc1 | 9.15 µM | > 25 µM | 8.8 µM | > 25 µM | 2.05 µM | 8.86 µM | 6.38 µM | 21.6 µM | 5.2 µM | > 25 µM | 9.29 µM | > 22.8 µM | 0.766 µM | > 25 µM | 2.56 µM | 10.7 µM | 7.56 µM | > 25 µM | 7.86 µM | > 25 µM |
| CCCN(CCC)c1ccc(C=O)c(Cl)c1 | 4.2 µM | 17 µM | 25.2 µM | > 87.8 µM | 14.8 µM | 28.6 µM | 23.8 µM | > 65 µM | 21.4 µM | > 76.6 µM | 20 µM | 68.9 µM | 24 µM | > 100 µM | 27.8 µM | 76.1 µM | 28.1 µM | > 100 µM | 33.9 µM | > 91.5 µM |
| O=C(c1ccc2ccccc2c1)c1nc2cc(F)ccc2[n+]([O-])c1C(F)(F)F | 15.9 µM | 38.1 µM | 15.2 µM | 28.6 µM | 24.9 µM | 67.6 µM | 22 µM | 48.9 µM | 18.2 µM | 38 µM | 15.9 µM | 30.3 µM | 13 µM | 27.8 µM | 6.68 µM | 24.9 µM | 26.6 µM | 71.4 µM | 18.5 µM | 38.1 µM |
| CSc1ncnc2c1ncn2CC(=O)C1CCC2C3CCC4=CC(=O)CCC4(C)C3CCC12C (configuration not stated) | – | 14.4 µM | – | 10 µM | – | 5.15 µM | – | 44.7 µM | – | 68.3 µM | – | 28.2 µM | – | > 77.1 µM | – | 0.926 µM | – | > 93.8 µM | – | > 100 µM |
| COc1cc(F)ccc1-c1cc(Nc2cc(CS(C)(=N)=O)ccn2)ncc1F (configuration not stated) | 0.0333 µM | 0.17 µM | 0.107 µM | > 100 µM | 0.0385 µM | 14.3 µM | 0.0366 µM | 0.272 µM | 0.153 µM | 8.63 µM | 0.102 µM | 5.44 µM | 0.0491 µM | > 100 µM | 0.0284 µM | 0.228 µM | 0.0583 µM | > 100 µM | 0.0689 µM | > 100 µM |
| COc1ccc(-c2c(C#N)c(N)nc(N3CCOCC3)c2C#N)cc1 | 2.13 µM | 26.5 µM | 28.5 µM | > 100 µM | 19.1 µM | 45.9 µM | 32.1 µM | > 100 µM | 21.4 µM | > 100 µM | 33.9 µM | > 100 µM | 18.8 µM | 62.4 µM | 20.2 µM | 63.5 µM | 25.7 µM | > 100 µM | 32.3 µM | > 100 µM |
| C=C1C(=O)OC2C1CCC(C)C1(O)C=CC(=O)C21C (configuration not stated) | – | > 10 µM | – | > 10 µM | – | > 10 µM | – | > 10 µM | – | > 10 µM | – | > 10 µM | – | > 10 µM | – | 9.5 µM | – | > 10 µM | – | > 10 µM |
| CC(/C=C/C(O)=C1/C(=O)CNC1=O)=C\[C@@H](C)[C@H]1O[C@@]2(C)O[C@H](C(=O)[C@@H]3O[C@@]32C)[C@@H]1C | – | 43.6 µM | – | 83.1 µM | – | 40.4 µM | – | 40 µM | – | 39.2 µM | – | 38.7 µM | – | 49.6 µM | – | 80.6 µM | – | 47.3 µM | – | 43.9 µM |
